Experimental data: DBAASP
In brackets after ≈: the same amount, converted by molar mass.

Legend:
Assay in all cases: ≥ marks a high value that may be exact or a test limit, other limits are often not marked, values filed in µg/mL are converted to µM
[1] = test system: Escherichia coli KCTC 1682
[2] = test system: Staphylococcus aureus KCTC 1621
[3] = test system: Bacillus subtilis KCTC 3068
[4] = test system: Pseudomonas aeruginosa KCTC 1637
[5] = test system: Staphylococcus epidermidis KCTC 1917
[6] = test system: Salmonella typhimurium KCTC 1926
Escherichia coli JW0013 = test system: Escherichia coli JW0013

SMILES | MIC [1] [µM] | MIC [2] [µM] | MIC [3] [µM] | MIC [4] [µM] | MIC [5] [µM] | MIC [6] [µM] | MIC (Escherichia coli JW0013) [µM]
CC[C@H](C)[C@H](N)C(=O)NCC(=O)N[C@@H](CCCCN)C(=O)N[C@@H](CC(C)C)C(=O)N[C@@H](Cc1ccccc1)C(=O)N[C@@H](CCCCN)C(=O)N[C@@H](CCCN=C(N)N)C(=O)N[C@H](C(=O)N[C@H](C(=O)N[C@@H](CCCCN)C(=O)N[C@@H](CCCN=C(N)N)C(=O)N[C@H](C(=O)N[C@@H](CC(C)C)C(=O)N[C@@H](CCCCN)C(=O)N[C@@H](Cc1ccccc1)C(=O)N[C@@H](CC(C)C)C(=O)N[C@@H](CCCN=C(N)N)C(=O)N[C@@H](CCCCN)C(=O)N[C@@H](CC(C)C)C(=O)O)[C@@H](C)CC)C(C)C)[C@@H](C)CC [IGKLFKRIVKRILKFLRKL] | 8 (≈ 19 µg/mL) | 4 (≈ 9.48 µg/mL) | 2 (≈ 4.74 µg/mL) | 8 (≈ 19 µg/mL) | 4 (≈ 9.48 µg/mL) | 4 (≈ 9.48 µg/mL) | –
CC[C@H](C)[C@H](NC(=O)[C@H](CC(C)C)NC(=O)[C@@H](N)CC(C)C)C(=O)N[C@H](C(=O)N[C@@H](CC(C)C)C(=O)N[C@@H](CCCCN)C(=O)N[C@@H](CCCCN)C(=O)N[C@@H](CCCCN)C(=O)N[C@@H](Cc1c[nH]c2ccccc12)C(=O)N[C@@H](CCCCN)C(=O)N[C@@H](CCCCN)C(=O)N[C@@H](CCC(N)=O)C(=O)N[C@@H](C)C(=O)N[C@@H](CCCCN)C(=O)N[C@@H](C)C(=O)N[C@@H](CCCCN)C(=O)N[C@@H](CO)C(=O)N[C@@H](CCCCN)C(N)=O)[C@@H](C)CC [LLIILKKKWKKQAKAKSK] | 8 (≈ 17.2 µg/mL) | 4 (≈ 8.61 µg/mL) | 4 (≈ 8.61 µg/mL) | 8 (≈ 17.2 µg/mL) | 8 (≈ 17.2 µg/mL) | 4 (≈ 8.61 µg/mL) | –
CC[C@H](C)[C@H](NC(=O)[C@H](CC(C)C)NC(=O)[C@@H](N)CC(C)C)C(=O)N[C@H](C(=O)N[C@@H](CC(C)C)C(=O)N[C@@H](CCCN=C(N)N)C(=O)N[C@@H](CCCN=C(N)N)C(=O)N[C@@H](CCCN=C(N)N)C(=O)N[C@@H](Cc1c[nH]c2ccccc12)C(=O)N[C@@H](CCCN=C(N)N)C(=O)N[C@@H](CCCCN)C(=O)N[C@@H](CCC(N)=O)C(=O)N[C@@H](C)C(=O)N[C@@H](CCCN=C(N)N)C(=O)N[C@@H](C)C(=O)N[C@@H](CCCN=C(N)N)C(=O)N[C@@H](CO)C(=O)N[C@@H](CCCCN)C(N)=O)[C@@H](C)CC [LLIILRRRWRKQARARSK] | 8 (≈ 18.6 µg/mL) | 4 (≈ 9.28 µg/mL) | 4 (≈ 9.28 µg/mL) | 8 (≈ 18.6 µg/mL) | 8 (≈ 18.6 µg/mL) | 4 (≈ 9.28 µg/mL) | –
CC[C@H](C)[C@H](NC(=O)[C@H](CC(C)C)NC(=O)[C@@H](N)CC(C)C)C(=O)N[C@H](C(=O)N[C@@H](CC(C)C)C(=O)N[C@@H](CCCN=C(N)N)C(=O)N[C@@H](CCCN=C(N)N)C(=O)N[C@@H](CCCN=C(N)N)C(=O)N[C@@H](Cc1c[nH]c2ccccc12)C(=O)N[C@@H](CCCN=C(N)N)C(=O)N[C@@H](CCCN=C(N)N)C(=O)N[C@@H](CCC(N)=O)C(=O)N[C@@H](C)C(=O)N[C@@H](CCCN=C(N)N)C(=O)N[C@@H](C)C(=O)N[C@@H](CCCN=C(N)N)C(=O)N[C@@H](CO)C(=O)N[C@@H](CCCN=C(N)N)C(N)=O)[C@@H](C)CC [LLIILRRRWRRQARARSR] | 8 (≈ 19 µg/mL) | 4 (≈ 9.5 µg/mL) | 4 (≈ 9.5 µg/mL) | 8 (≈ 19 µg/mL) | 8 (≈ 19 µg/mL) | 4 (≈ 9.5 µg/mL) | –
CC[C@H](C)[C@H](NC(=O)[C@H](CCCN=C(N)N)NC(=O)[C@H](CCCN=C(N)N)NC(=O)[C@@H]1CCCN1C(=O)[C@@H]1CCCN1C(=O)[C@H](CCCN=C(N)N)NC(=O)[C@@H]1CCCN1C(=O)[C@H](CCCN=C(N)N)NC(=O)[C@@H]1CCCN1C(=O)[C@H](CC(C)C)NC(=O)[C@H](Cc1ccc(O)cc1)NC(=O)[C@@H]1CCCN1C(=O)[C@@H]1CCCN1C(=O)[C@H](CCCCN)NC(=O)[C@H](CC(=O)O)NC(=O)[C@@H](N)CCCN=C(N)N)C(=O)N[C@@H](Cc1ccc(O)cc1)C(=O)N[C@@H](CC(N)=O)C(=O)N[C@@H](CCCN=C(N)N)C(N)=O [RDKPPYLPRPRPPRRIYNR] | – | – | – | – | – | – | 1.96 (≈ 4.8 µg/mL)
CC[C@H](C)[C@H](NC(=O)[C@H](CCCCN)NC(=O)[C@@H](N)CCCN=C(N)N)C(=O)N[C@@H](CCCN=C(N)N)C(=O)N1CCC[C@H]1C(=O)N[C@@H](CCCN=C(N)N)C(=O)N1CCC[C@H]1C(=O)N1CCC[C@H]1C(=O)N[C@@H](CCCN=C(N)N)C(=O)N[C@@H](CC(C)C)C(=O)N1CCC[C@H]1C(=O)N[C@@H](CCCN=C(N)N)C(=O)N1CCC[C@H]1C(=O)N[C@@H](CCCN=C(N)N)C(=O)N1CCC[C@H]1C(=O)N[C@@H](CCCN=C(N)N)C(=O)O [RKIRPRPPRLPRPRPR] | – | – | – | – | – | – | 0.3 (≈ 0.615 µg/mL)

The next lines start with the values.

MIC [1] [µM] | MIC [2] [µM] | MIC [3] [µM] | MIC [4] [µM] | MIC [5] [µM] | MIC [6] [µM] | MIC (Escherichia coli JW0013) [µM] | SMILES
– | – | – | – | – | – | 0.682 (≈ 1.7 µg/mL) | CC[C@H](C)[C@H](NC(=O)[C@H](CCCN=C(N)N)NC(=O)[C@H](CCCN=C(N)N)NC(=O)[C@@H]1CCCN1C(=O)[C@@H]1CCCN1C(=O)[C@H](CCCN=C(N)N)NC(=O)[C@H](CCCCN)NC(=O)[C@H](CCCN=C(N)N)NC(=O)[C@@H]1CCCN1C(=O)[C@H](CC(C)C)NC(=O)[C@H](Cc1ccc(O)cc1)NC(=O)[C@H](Cc1cnc[nH]1)NC(=O)[C@H](CCCCN)NC(=O)[C@H](CCCCN)NC(=O)[C@H](CC(=O)O)NC(=O)[C@@H](N)C(C)C)C(=O)N[C@@H](Cc1ccc(O)cc1)C(=O)N[C@@H](CC(N)=O)C(=O)N[C@@H](CCCN=C(N)N)C(N)=O [VDKKHYLPRKRPPRRIYNR]
– | – | – | – | – | – | 0.952 (≈ 2.4 µg/mL) | CC[C@H](C)[C@H](NC(=O)[C@H](CCCN=C(N)N)NC(=O)[C@H](CCCN=C(N)N)NC(=O)[C@@H]1CCCN1C(=O)[C@@H]1CCCN1C(=O)[C@H](CCCN=C(N)N)NC(=O)[C@H](CCCN=C(N)N)NC(=O)[C@H](CCCN=C(N)N)NC(=O)[C@@H]1CCCN1C(=O)[C@H](CC(C)C)NC(=O)[C@H](Cc1ccc(O)cc1)NC(=O)[C@H](Cc1cnc[nH]1)NC(=O)[C@H](CCCCN)NC(=O)[C@H](CCCCN)NC(=O)[C@H](CC(=O)O)NC(=O)[C@@H](N)C(C)C)C(=O)N[C@@H](Cc1ccc(O)cc1)C(=O)N[C@@H](CC(N)=O)C(=O)N[C@@H](CCCN=C(N)N)C(N)=O [VDKKHYLPRRRPPRRIYNR]
– | – | – | – | – | – | 0.639 (≈ 1.6 µg/mL) | CC[C@H](C)[C@H](NC(=O)[C@H](CCCN=C(N)N)NC(=O)[C@H](CCCN=C(N)N)NC(=O)[C@@H]1CCCN1C(=O)[C@@H]1CCCN1C(=O)[C@H](CCCN=C(N)N)NC(=O)[C@@H]1CCCN1C(=O)[C@H](CCCN=C(N)N)NC(=O)[C@@H]1CCCN1C(=O)[C@H](CCCN=C(N)N)NC(=O)[C@H](Cc1ccc(O)cc1)NC(=O)[C@H](Cc1cnc[nH]1)NC(=O)[C@H](CCCCN)NC(=O)[C@H](CCCCN)NC(=O)[C@H](CC(=O)O)NC(=O)[C@@H](N)C(C)C)C(=O)N[C@@H](Cc1ccc(O)cc1)C(=O)N[C@@H](CC(N)=O)C(=O)N[C@@H](CCCN=C(N)N)C(N)=O [VDKKHYRPRPRPPRRIYNR]
8 (≈ 15.2 µg/mL) | 2 (≈ 3.79 µg/mL) | 4 (≈ 7.58 µg/mL) | 4 (≈ 7.58 µg/mL) | 8 (≈ 15.2 µg/mL) | 4 (≈ 7.58 µg/mL) | – | CC[C@H](C)[C@H](NC(=O)[C@H](Cc1c[nH]c2ccccc12)NC(=O)[C@H](CCCN=C(N)N)NC(=O)[C@@H](NC(=O)[C@@H](NC(=O)[C@H](CCCN=C(N)N)NC(=O)[C@H](CCCCN)NC(=O)[C@@H](N)Cc1c[nH]c2ccccc12)[C@@H](C)CC)C(C)C)C(=O)N[C@@H](CCCCN)C(=O)N[C@@H](CCCN=C(N)N)C(=O)N[C@@H](Cc1c[nH]c2ccccc12)C(=O)N[C@@H](CC(C)C)C(=O)N[C@@H](CCCN=C(N)N)C(N)=O [WKRIVRWIKRWLR]
